Like-named read-outs stand apart in the source and are kept apart here. Marks after values point to notes of the source that are not given here. Each block holds one compound with its values, some of them ahead of it.
Columns and labels:
colorectal cancer tumor = experiment: Another batch: HDAC inhibitors (PCI-34051, elevenostat, ABT-301) with or without RMP1-14 in tumor-bearing mice; type: in vivo, mouse; settings: another batch of experiments, data not shown; compared to vehicle group or to other combinations
[1] = test system: CT26 allograft tumor (MSS subtype colorectal carcinoma); experiment: CT26 subcutaneous tumor model, HDAC inhibitors with or without RMP1-14; settings: for response in the mice on the growth of tumor (individual tumor volumes): compared to vehicle group or to other combinations, ABT-301 100 mg/kg, vorinostat 100 mg/kg, citarinostat 50 mg/kg, RMP1-14 200 μg
Procedure: MC-38 cells (purchased from Kerafast, Inc.), derived from C57BL/6 murine colon adenocarcinoma cells typically classified as microsatellite instable, were maintained in DMEM with 10% fetal bovine serum, 100 U/mL penicillin, 100 μg/mL streptomycin, 10 mM HEPES, and 1× nonessential amino acid. All the cells were maintained in a humidified atmosphere having 5% CO2 at 37° C.
(§1) Female BALB/c mice (BALB/cByJNarl) aged 5-7 weeks (for CT26 subcutaneous tumor model), and female C57BL/6 mice (C57BL/6JNarl) aged 5-7 weeks (for MC-38 subcutaneous tumor model), were housed in standard cages within the animal facility at the Industrial Technology Research Institute (ITRI). A one-week acclimatization period preceded the commencement of the study, with the health of the mice monitored daily. Animals were kept in rooms at 22-26° C. with 40-70% humidity, positive pressure, 60% air recirculation, ventilation rate 15-20 changes per hour, and a controlled light-dark cycle (12-12 hours).
(§2) CT26 cells (2×10^5) were suspended in 100 μl of PBS and subcutaneously inoculated into the right flank of female BALB/c mice. Tumors were measured with calipers, and tumor size was calculated as follows: tumor volume (V)=(L×S^2)/2 (L, longest diameter, mm; S, shortest diameter, mm). Tumor size and body weight of mice were monitored and recorded twice to thrice per week. The antitumor activities of treatments were expressed as percentages of tumor growth inhibition (% TGI), as calculated using the following formula: [1−(final tumor volume−initial tumor volume for treated group)/(final tumor volume−initial tumor volume for vehicle group)]×100. Body weight of each mouse was also compared to that on the first day of treatment (Day 0) and expressed as a percentage of Day 0 value.
When mean tumor volume reached about 80-100 mm^3, treatments were initiated and the day of treatment initiation was designated as Day 0. […] Treatments were administered for indicated period (31 days) or until humane endpoints. Eight or nine mice were used in each group. […] RMP1-14 was prepared with PBS.

HDAC7 = target: T1, HDAC7 (Homo sapiens, UniProt Q8WUI4); experiment: HDAC enzymatic activity assay (fluorogenic, Reaction Biology)
T1 sequence (Q8WUI4 1-952): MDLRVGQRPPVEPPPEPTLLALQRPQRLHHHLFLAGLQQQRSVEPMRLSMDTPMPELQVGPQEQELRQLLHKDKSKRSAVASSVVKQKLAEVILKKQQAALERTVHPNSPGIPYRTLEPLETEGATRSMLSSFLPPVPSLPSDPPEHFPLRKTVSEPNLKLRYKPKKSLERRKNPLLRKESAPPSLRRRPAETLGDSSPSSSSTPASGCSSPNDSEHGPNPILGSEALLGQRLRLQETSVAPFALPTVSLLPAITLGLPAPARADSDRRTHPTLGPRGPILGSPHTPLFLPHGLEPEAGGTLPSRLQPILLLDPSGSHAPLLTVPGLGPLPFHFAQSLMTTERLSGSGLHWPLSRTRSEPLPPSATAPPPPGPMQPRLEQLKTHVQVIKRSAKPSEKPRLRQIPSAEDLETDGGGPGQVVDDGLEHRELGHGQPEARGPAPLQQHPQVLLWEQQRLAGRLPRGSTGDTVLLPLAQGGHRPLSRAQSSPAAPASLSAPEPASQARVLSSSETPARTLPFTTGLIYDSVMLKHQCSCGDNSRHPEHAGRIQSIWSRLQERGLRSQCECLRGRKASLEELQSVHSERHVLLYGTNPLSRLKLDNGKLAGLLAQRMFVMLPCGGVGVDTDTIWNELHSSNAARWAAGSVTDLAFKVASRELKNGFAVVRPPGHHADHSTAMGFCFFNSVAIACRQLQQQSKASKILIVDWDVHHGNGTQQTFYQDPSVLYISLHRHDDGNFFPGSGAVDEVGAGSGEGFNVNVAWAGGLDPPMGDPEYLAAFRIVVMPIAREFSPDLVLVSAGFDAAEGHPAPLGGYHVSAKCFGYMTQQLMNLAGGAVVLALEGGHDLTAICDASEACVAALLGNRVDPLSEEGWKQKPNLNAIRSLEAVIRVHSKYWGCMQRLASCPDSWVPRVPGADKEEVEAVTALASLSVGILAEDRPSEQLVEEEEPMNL

HDAC9 = HDAC9 (Homo sapiens, UniProt Q9UKV0); experiment: as above
HDAC10 = target: T2, HDAC10 (Homo sapiens, UniProt Q969S8); experiment: as above
T2 sequence (Q969S8 1-669): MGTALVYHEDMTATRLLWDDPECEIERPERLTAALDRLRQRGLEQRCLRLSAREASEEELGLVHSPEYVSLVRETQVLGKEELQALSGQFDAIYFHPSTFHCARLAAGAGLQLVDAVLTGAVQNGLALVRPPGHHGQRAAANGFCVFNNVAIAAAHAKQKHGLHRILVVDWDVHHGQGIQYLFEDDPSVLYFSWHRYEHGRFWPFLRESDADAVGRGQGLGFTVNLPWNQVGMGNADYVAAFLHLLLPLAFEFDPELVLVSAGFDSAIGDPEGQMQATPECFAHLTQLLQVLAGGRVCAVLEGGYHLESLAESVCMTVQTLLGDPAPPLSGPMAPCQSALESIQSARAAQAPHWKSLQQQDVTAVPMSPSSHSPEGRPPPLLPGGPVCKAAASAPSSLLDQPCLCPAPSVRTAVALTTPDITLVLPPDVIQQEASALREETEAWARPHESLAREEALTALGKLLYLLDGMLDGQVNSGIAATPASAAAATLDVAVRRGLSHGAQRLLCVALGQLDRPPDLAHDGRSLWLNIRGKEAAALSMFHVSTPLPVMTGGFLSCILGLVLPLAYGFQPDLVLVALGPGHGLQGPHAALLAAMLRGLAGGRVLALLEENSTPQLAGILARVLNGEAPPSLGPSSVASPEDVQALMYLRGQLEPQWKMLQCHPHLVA

HDAC11 = target: T3, HDAC11 (Homo sapiens, UniProt Q96DB2); experiment: as above
T3 sequence (Q96DB2 1-347): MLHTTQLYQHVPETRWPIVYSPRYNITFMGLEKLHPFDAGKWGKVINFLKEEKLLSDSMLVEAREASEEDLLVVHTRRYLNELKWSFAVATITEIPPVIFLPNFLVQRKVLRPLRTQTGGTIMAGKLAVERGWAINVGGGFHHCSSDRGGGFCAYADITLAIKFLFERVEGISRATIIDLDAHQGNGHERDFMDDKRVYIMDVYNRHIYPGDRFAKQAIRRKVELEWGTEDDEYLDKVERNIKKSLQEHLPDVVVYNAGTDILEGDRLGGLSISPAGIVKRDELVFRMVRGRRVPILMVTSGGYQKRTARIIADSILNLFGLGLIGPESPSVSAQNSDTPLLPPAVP

[2] = test system: CT26 allograft tumor (MSS subtype colorectal carcinoma); experiment: CT26 subcutaneous tumor model, multiple doses of ABT-301 with or without avelumab; type: in vivo, mouse
Procedure: Treatments were administered for indicated period (24 days) or until humane endpoints. Ten mice were used in each group. […] Avelumab was prepared with PBS.

[3] = test system: CT26 allograft tumor (MSS subtype colorectal carcinoma)
Procedure: As described herein, tumor responses were evaluated using Response Evaluation Criteria in Solid Tumors (RECIST) criteria. Complete response (CR) was defined as complete disappearance of measurable or evaluable tumor lesions; partial response (PR) was defined as reduction of the size of measurable tumor lesions by at least 30% (≥30%) compared to the original tumor size; stable disease (SD) was defined as reduction of the size of measurable tumor lesions by less than 30% (<30%) or enlargement of the size of measurable tumor lesions by less than 20% (<20%) compared to the original tumor size; and progressive disease (PD) was defined as growth of the tumor by more than 30% (>30%) in the tumor volume compared to the original tumor size or development of new lesions.
All the cells were maintained in a humidified atmosphere having 5% CO2 at 37° C.
as §1, §2
The administration of treatments commenced five days following the inoculation of CT26 cells, with the day of treatment initiation designated as Day 0. When mean tumor volume reached 50-100 mm^3, the mice were assigned into four groups through S-type grouping according to tumor size. […] Eight mice were used in each group. Treatments were administered for 43 days. […] Avelumab was prepared with PBS.

[4] = test system: MC-38 allograft tumor (MSI-H subtype colorectal carcinoma)
Procedure: As described herein, tumor responses were evaluated using Response Evaluation Criteria in Solid Tumors (RECIST) criteria. Complete response (CR) was defined as complete disappearance of measurable or evaluable tumor lesions; partial response (PR) was defined as reduction of the size of measurable tumor lesions by at least 30% (≥30%) compared to the original tumor size; stable disease (SD) was defined as reduction of the size of measurable tumor lesions by less than 30% (<30%) or enlargement of the size of measurable tumor lesions by less than 20% (<20%) compared to the original tumor size; and progressive disease (PD) was defined as growth of the tumor by more than 30% (>30%) in the tumor volume compared to the original tumor size or development of new lesions. […]
Female BALB/c mice (BALB/cByJNarl) aged 5-7 weeks (for CT26 subcutaneous tumor model), and female C57BL/6 mice (C57BL/6JNarl) aged 5-7 weeks (for MC-38 subcutaneous tumor model), were housed in standard cages within the animal facility at the Industrial Technology Research Institute (ITRI). A one-week acclimatization period preceded the commencement of the study, with the health of the mice monitored daily. […]
MC-38 cells (2×10^5) were suspended in 100 μl of PBS and subcutaneously inoculated into the right flank of female C57BL/6 mice. Tumors were measured with calipers, and tumor size was calculated as follows: tumor volume (V)=(LxS^2)/2 (L, longest diameter, mm; S, shortest diameter, mm). Tumor size and body weight of mice were monitored and recorded twice to thrice per week. The antitumor activities of treatments were expressed as percentages of tumor growth inhibition (% TGI), as calculated using the following formula: [1−(final tumor volume−initial tumor volume for treated group)/(final tumor volume−initial tumor volume for vehicle group)]×100. Body weight of each mouse was also compared to that on the first day of treatment (Day 0) and expressed as a percentage of Day 0 value. […]

[5] = Day 28 after treatments, ABT-301 100 mg/kg PO, avelumab 100 μg IP, means ± SEM

Chain of HDAC9 (Q9UKV0 whole entry): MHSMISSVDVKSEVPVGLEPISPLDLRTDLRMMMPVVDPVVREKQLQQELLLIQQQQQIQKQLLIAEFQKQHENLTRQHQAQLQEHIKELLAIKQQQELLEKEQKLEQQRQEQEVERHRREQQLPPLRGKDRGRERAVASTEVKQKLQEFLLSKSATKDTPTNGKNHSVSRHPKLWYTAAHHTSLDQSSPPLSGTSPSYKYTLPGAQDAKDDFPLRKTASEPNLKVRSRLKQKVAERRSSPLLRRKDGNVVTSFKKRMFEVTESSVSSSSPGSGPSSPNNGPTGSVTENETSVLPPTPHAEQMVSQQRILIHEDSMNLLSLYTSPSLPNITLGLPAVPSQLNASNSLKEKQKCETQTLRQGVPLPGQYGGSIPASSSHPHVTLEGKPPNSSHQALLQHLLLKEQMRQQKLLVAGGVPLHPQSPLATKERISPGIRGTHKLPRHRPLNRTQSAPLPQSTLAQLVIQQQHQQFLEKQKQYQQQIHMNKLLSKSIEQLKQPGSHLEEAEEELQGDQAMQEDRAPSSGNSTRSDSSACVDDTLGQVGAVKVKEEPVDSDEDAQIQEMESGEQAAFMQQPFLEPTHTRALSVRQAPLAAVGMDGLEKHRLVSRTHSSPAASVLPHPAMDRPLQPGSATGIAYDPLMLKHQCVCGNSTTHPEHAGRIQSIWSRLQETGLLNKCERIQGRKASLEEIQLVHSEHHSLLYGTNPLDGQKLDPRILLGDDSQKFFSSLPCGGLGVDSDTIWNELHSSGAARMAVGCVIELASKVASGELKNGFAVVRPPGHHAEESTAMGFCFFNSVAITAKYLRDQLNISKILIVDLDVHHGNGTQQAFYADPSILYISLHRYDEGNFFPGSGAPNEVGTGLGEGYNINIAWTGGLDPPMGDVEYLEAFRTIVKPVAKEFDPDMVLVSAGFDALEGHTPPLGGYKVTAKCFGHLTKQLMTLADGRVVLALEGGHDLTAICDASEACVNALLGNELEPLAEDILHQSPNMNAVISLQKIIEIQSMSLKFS

Compound: COc1ccc(Cn2ccc3ccc(C(=O)NO)cc32)cc1 [PCI-34051]
response in the mice on the growth of tumor (colorectal cancer tumor): did not elicit a visible response

Compound: O=C(CCCCCCNC(=O)c1cnc(N(c2ccccc2)c2ccccc2Cl)nc1)NO [Citarinostat]
TGI (tumor growth inhibition) ([1]; Day 22 after treatments, ABT-301 100 mg/kg PO, vorinostat 100 mg/kg PO, citarinostat 50 mg/kg IP, RMP1-14 200 μg IP): 38%
response in the mice on the growth of tumor (individual tumor volumes) [1]: did not elicit a visible response

IC50 (HDAC7): > 3 µM
IC50 (HDAC9): > 3 µM
IC50 (HDAC10): > 3 µM
IC50 (HDAC11): > 3 µM
Compound: Nc1cc(F)ccc1NC(=O)c1ccc(CNC(=O)/C=C/c2cccnc2)cc1 [Tucidinostat, reference compound]

Compound: Avelumab: an anti-PD-L1 antibody [reference compound]
Tumor size ([2]; Day 24 after treatments, avelumab 200 μg alone, means ± SEM): 31.79 ± 26.66** mm^3
number of mice exhibiting complete response (CR) ([2]; avelumab 200 μg IP BIW alone, out of 10 mice): 7
complete response (CR) rate ([3]; CT26-bearing BALB/c mice, n=8/group, ABT-301 100 mg/kg PO QD, avelumab 100 μg IP BIW): 1/8
Median survival ([3]; CT26 allograft tumor mice, over the entire study, ABT-301 100 mg/kg PO QD, avelumab 100 μg IP BIW): 28 days
TGI (tumor growth inhibition) [3, 5]: 58.51 ± 14.14%
Tumor size [3, 5]: 559.63 ± 156.94 mm^3
Tumor size ([4]; Day 25 after treatments, ABT-301 100 mg/kg PO, avelumab 200 μg IP, RMP1-14 200 μg IP, means ± SEM): 529.91 ± 329.24 mm^3
complete response (CR) rate ([4]; MC-38-bearing C57BL/6 mice, n=8/group, ABT-301 100 mg/kg PO QD, avelumab 200 μg IP BIW, RMP1-14 200 μg IP BIW): 4/8
Median survival ([4]; MC-38 allograft tumor mice, over the entire study, ABT-301 100 mg/kg PO QD, avelumab or RMP1-14 200 μg IP BIW): 68 days

Compound: O=C(CCCCCCC(=O)Nc1ccccc1)NO [Vorinostat]
response in the mice on the growth of tumor (individual tumor volumes) [1]: did not elicit a visible response

Compound: COc1ccccc1NC(=O)NCc1ccc(C(=O)NO)cc1 [elevenostat]
response in the mice on the growth of tumor (colorectal cancer tumor): did not elicit a visible response

Reference: US20240277663A1, “PHARMACEUTICAL KITS AND USES THEREOF FOR TREATING COLORECTAL CANCER” (priority 2023, published 2024)
